# Data published in US6060600A, “Substituted tetronic acids useful for treating HIV and other retroviruses” (Pharmacia & Upjohn Company, priority 1997, dated 2000).
# Square brackets hold non-standard residues; d marks the D form. Peptide text beside a SMILES is read from it. * marks the point of attachment. Sta = CC(C)C[C@H](N)[C@@H](O)CC(=O)O; Isovaleryl = CC(C)CC(=O)*
# How the values were obtained:
# [1] = target: T1, HIV-1 protease (Human immunodeficiency virus type 1 group M subtype B, UniProt P04585); test: In vitro HIV protease inhibitory assay (fluorescently labeled substrate); type: biochemical; conditions: pH 5.5, one hour, room temperature
# T1 construct: The protease (or proteinase) enzyme, consisting of only 99 amino acids
# Method: The HIV protease screening assay is based on a fluorescently labeled substrate which can be resolved from nonlabeled cleavage product using avidin-polystyrene particles, 0.7-0.9 μm. The substrate is biotinylated at the amino terminal arginine and fluorescently labeled with fluorescein isothiocynate (FITC) at the carboxyl terminal lysine. This assay has been employed to detect novel, nonpeptidic inhibitors of HIV-1 protease. Substrate (20 μl of 0.2 μM), sample (10 μl of desired concentration), and enzyme (10 μl of 0.1 μM) are added to a 96 well pandex plate. The assay is run in 0.1 M sodium acetate buffer at pH 5.5 in the presence of 1.0 M sodium chloride and 0.05% NP-40 and incubated in the dark for one hour at room temperature. Avidin coated polystyrene beads (40 μl of 0.1% (w/v)) are added and the incubation is continued in the dark for an additional half hour. The labeled cleavage product is separated from the unreacted substrate via filtration and is read on the IDEXX Screen Machine. (IDEXX Corporation--Portland, Maine) The data are analyzed by appropriate computer algorithms to ascertain percent inhibition values.
# The Activity Table showing the results of the HIV Protease Inhibitory Assay appears below in TABLE 1. The table has three columns, the left column provides the code number of the compound for easy cross reference to structure tables and detailed procedures, the middle column provides the concentration of test compound and the column on the right provides the percent inhibition.
# [2] = test system: viral reverse transcriptase; conditions: cited from earlier work
# [3] = test system: HIV-I protease; conditions: Seelmeier et al.; cited from earlier work
# [4] = HIV-1 Dose 3.3 (unit not given)
# [5] = HIV-1 Dose 10.0 (unit not given)
# [6] = HIV-1 Dose 30.0 (unit not given)
Compound,"% Inhibition [1, 4] [%]","% Inhibition [1, 5] [%]","% Inhibition [1, 6] [%]",inhibitor of viral reverse transcriptase [2],inhibitor of HIV-I protease [3]
CCCC1(CCC)OC(=O)C(C(c2cccc(N(C)S(=O)(=O)c3ccc(C#N)cc3)c2)C2CC2)=C1O (centres unmarked) [AX-1],103.5,111.53,102.32,,
"Cc1cn([C@H]2C[C@H](N=[N+]=[N-])[C@@H](CO)O2)c(=O)[nH]c1=O [AZT, 3-azido-3-deoxythymidine]",,,,known inhibitor of viral reverse transcriptase,
N#Cc1ccc(S(=O)(=O)Nc2cccc(C(C3=C(O)C4(CCN(C(=O)OCC5c6ccccc6-c6ccccc65)CC4)OC3=O)C3CC3)c2)cc1 (centres unmarked) [BX-1],113.09,126.98,123.63,,
N#Cc1ccc(S(=O)(=O)Nc2cccc(C(C3=C(O)C4(CCNCC4)OC3=O)C3CC3)c2)cc1 (centres unmarked) [BX-2],90.58,103.27,101.26,,
N#Cc1ccc(S(=O)(=O)Nc2cccc(C(C3=C(O)C4(CCN(CC5c6ccccc6-c6ccccc65)CC4)OC3=O)C3CC3)c2)cc1 (centres unmarked) [BX-3],108.72,107,103.12,,
CCN1CCC2(CC1)OC(=O)C(C(c1cccc(NS(=O)(=O)c3ccc(C#N)cc3)c1)C1CC1)=C2O (centres unmarked) [BX-4],71.3,94.47,101.07,,
CN1CCC2(CC1)OC(=O)C(C(c1cccc(NS(=O)(=O)c3ccc(C#N)cc3)c1)C1CC1)=C2O (centres unmarked) [BX-5],61.58,85.22,98.54,,
CC(=O)N1CCC2(CC1)OC(=O)C(C(c1cccc(NS(=O)(=O)c3ccc(C#N)cc3)c1)C1CC1)=C2O (centres unmarked) [CX-1],107.43,98.33,103.37,,
N#Cc1ccc(S(=O)(=O)Nc2cccc(C(C3=C(O)C4(CCN(C(=O)c5ccccc5)CC4)OC3=O)C3CC3)c2)cc1 (centres unmarked) [CX-2],107.56,109.04,110.58,,
CC(C)CC(=O)N[C@H](C(=O)N[C@H](C(=O)N[C@@H](CC(C)C)[C@@H](O)CC(=O)N[C@@H](C)C(=O)N[C@@H](CC(C)C)[C@@H](O)CC(=O)O)C(C)C)C(C)C [Pepstatin A] (Isovaleryl-VV[Sta]A[Sta]-OH),,,,,inhibitor of HIV-I protease

# Now from value to compound, other results behind:
"% Inhibition [1, 4] [%]","% Inhibition [1, 5] [%]","% Inhibition [1, 6] [%]",Compound,inhibitor of viral reverse transcriptase [2],inhibitor of HIV-I protease [3]
108.97,109.57,113.85,CCCC1(CCC)OC(=O)C(C(c2cccc(NS(=O)(=O)c3cccnn3)c2)C2CC2)=C1O (centres unmarked) [DX-1],,
115.79,115.80,113.98,CCC1CCCCC12OC(=O)C(C(c1cccc(NS(=O)(=O)c3ccc(C#N)cc3)c1)C1CC1)=C2O (centres unmarked) [DX-2],,
117.26,110.16,113.83,CCC1CCCCC12OC(=O)C(C(c1cccc(NS(=O)(=O)c3ccc(C#N)cc3)c1)C1CC1)=C2O (centres unmarked) [DX-3],,
108.42,106.81,106.29,C=CCC1(CC=C)OC(=O)C(C(c2ccccc2)C2CC2)=C1O (centres unmarked) [DX-4],,
